Results from patent US6673839B1, “Pharmaceutical compositions with antitumour activity” (Universita' Degli Studi di Catania, priority 1998, dated 2004).
Structures can show the parent of a compound that is named as a salt.

Tested on: Cells from Nasopharynx Carcinoma Explant
Experiment: In vitro short-term chemosensitivity assay (MTT)
Format: cell-based, human
Settings: Table 1, 24 h
Procedure: The effects of L-aC on cells from 4 primitive epidermoid carcinomas of the larynx and 1 primitive undifferentiated carcinoma of the nasopharynx were tested.
Tissue fragments from the tumour mass were mechanically dissociated in Hank's solutions adding an antibiotic and an antifungal to obtain a cell monosuspension free of agglomerates. The resulting suspension was centrifuged at 1200 rpm for 5 minutes and the pellet was resuspended in MEM culture medium supplemented with 10% of patient serum, to obtain a concentration of 10^5 cells/ml. Subsequently, 180 μl of the resulting suspension were dispensed in microplate wells and incubated under 5% CO2 atmosphere at 37° C. for 3 days. After that, the antitumor medicaments were added in the amount of 20 μl for each well, at a concentration of 0.1×, 1× and 10× the maximum serum concentrations that can usually be reached in clinical practice. 24 h after the beginning of the exposure to the antitumour medicament, 100 μl of MTT were added, and after 4 h, a further 150 μl of dimethylsulfoxide were added.
The optical density was evaluated by a Uniscan microspectrophotometer with a […] wavelength filter. Cytotoxicity was evaluated as percentage of the optical density of the treated sample compared with the optical density of the control.
Bleomycin (BLEC), […] (CDDP), 5-fluoruracil (5-FU), vincristine (VCR), epidoxorubicin (Epi-Dx) and methotrexate (MTX) were tested for comparison purposes.
L-aC was tested at the following concentrations: 0.2-2-20 mg/ml.
In vitro short-term chemosensitivity assay (according to Hill and coll.)
(Cell Vitality Percentage After Exposure to the Antitumoral)—Raw Data
(Cells from Nasopharynx Carcinoma Explant)

CC(=O)OC(CC(=O)[O-])C[N+](C)(C)C [L-aC, L-acetylcarnitine hydrochloride]
Cell Vitality Percentage After Exposure (0.1x maximum clinical serum concentration (L-aC tested at 0.2-2-20 mg/ml)): 58% | Cell Vitality Percentage After Exposure (1x maximum clinical serum concentration): 4.8% | Cell Vitality Percentage After Exposure (10x maximum clinical serum concentration): 4%
